Legend:
human GPR120 = molecular target: T1, human GPR120 (Homo sapiens, UniProt Q5NUL3); assay: cAMP assay in CHO-hGPR120 cells; type: cell-based; settings: cAMP production in CHO-hGPR120 cells; mean ± SEM
T1 construct: expressed in transfected cells
T1 sequence (Q5NUL3 1-361): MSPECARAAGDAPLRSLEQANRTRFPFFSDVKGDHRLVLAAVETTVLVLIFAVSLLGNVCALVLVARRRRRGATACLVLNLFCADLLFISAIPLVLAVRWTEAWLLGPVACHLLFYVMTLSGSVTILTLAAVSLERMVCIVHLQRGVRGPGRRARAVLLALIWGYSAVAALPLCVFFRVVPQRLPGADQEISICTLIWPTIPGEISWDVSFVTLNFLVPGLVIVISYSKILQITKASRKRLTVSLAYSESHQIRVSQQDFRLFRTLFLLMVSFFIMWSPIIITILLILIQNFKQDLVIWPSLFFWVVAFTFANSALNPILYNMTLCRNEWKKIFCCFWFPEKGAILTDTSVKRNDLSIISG
Description: (§1) CHO-hGPR120 or CHO cells in HBSS (Invitrogen), 20 mM HEPES (Invitrogen), pH 7.4, 0.01% BSA, 1.5 mM 3-isobutyl-1-methylxanthine (Sigma) and d2-labeled cAMP (CisBio) were incubated with GPR120 agonists (1% DMSO) for 45 min at room temperature in white small-volume 384-well plates (Greiner). The reaction was terminated by addition of conjugate and lysis buffer (CisBio) supplemented with anti-cAMP Cryptate (CisBio).

mouse GPR120 [1] = molecular target: T2, mouse GPR120 (Mus musculus, UniProt Q7TMA4); assay: DMR assay in CHO-mGPR120 cells; type: cell-based
T2 construct: expressed in transfected cells
T2 sequence (Q7TMA4 1-361): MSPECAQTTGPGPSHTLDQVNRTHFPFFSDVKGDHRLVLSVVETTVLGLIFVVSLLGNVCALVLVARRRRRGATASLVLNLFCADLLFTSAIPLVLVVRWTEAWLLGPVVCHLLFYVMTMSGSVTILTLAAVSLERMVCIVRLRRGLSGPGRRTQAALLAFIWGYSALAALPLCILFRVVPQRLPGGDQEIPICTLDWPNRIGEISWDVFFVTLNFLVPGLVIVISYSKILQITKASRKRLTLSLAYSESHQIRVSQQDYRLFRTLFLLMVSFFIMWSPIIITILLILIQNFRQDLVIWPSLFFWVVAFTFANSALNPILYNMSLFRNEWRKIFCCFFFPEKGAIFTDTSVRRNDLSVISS
Description: (§2) DMR (dynamic mass redistribution) was measured by resonant waveguide grating (RWG) using an Epic biosensor (Corning). CHO-hGPR120, CHO-mGPR120 and CHO cells in DMEM/F-12 (Invitrogen) were cultured in fibronectin coated 384-well Epic plates (Corning) at 37°C, 95% humidity and 5% CO2 for 5 hours with 10% FBS (Sigma), followed by 19 hours without FBS. CHO-hGPR40 cells were cultured at 37°C, 95% humidity and 5% CO2 for 20–24 hours in Ham’s F-12 Nutrient Mix with GlutaMAX (Invitrogen) supplemented with Non-Essential Amino Acids (Gibco) and 10% FBS (Sigma) in fibronectin coated 384-well Epic plates (Corning). Following the incubations culture media was replaced with HBSS (Invitrogen), 20 mM HEPES (Invitrogen), pH 7.4 and 1% DMSO and equilibrated to 26°C in the Epic for thirty min before addition of agonists and detection of DMR.

control CHO cells [2] = assay: DMR assay in control CHO cells; type: cell-based, Chinese hamster; settings: control CHO cells (empty vector)
Description: as §2

control CHO cells [3] = assay: cAMP assay in control CHO cells; type: cell-based, Chinese hamster
Description: as §1

[4] = system: dispersed wt mouse islets cell; assay: cAMP production in dispersed wild type mouse islet cells; type: cell-based; settings: 10 μM agonist, vs control cells
Description: Mouse islets were isolated from pancreas by collagenase digestion, handpicked under microscope following multiple washing steps and dispersed to single cells using TrypLE Express (Gibco). The dispersed islet cells (20 000 cells/well) were incubated with the GPR120 agonists for 30 min in 96-well black plates (Corning) at 37°C in Krebs ringer phosphate Hepes buffer, pH 7.4, with 11 mM Glucose, 0.1% BSA and 0.5 mM 3-isobutyl-1-methylxanthine followed by addition of d2-labeled cAMP and anti-cAMP Cryptate in conjugation and lysis buffer (Cisbio). Produced cAMP was detected with homogenous time resolved fluorescence (HTRF) (λex = 340 nm, λem = 665 and 615 nm) using a Pherastar (BMG Labtech).

STC-1 cells = assay: GLP-1 secretion from STC-1 cells; type: cell-based, mouse; settings: 2 hours, active GLP-1, vs 0.1% DMSO
Description: STC-1 cells were cultured in DMEM (Invitrogen) supplemented with 10% horse serum (ThermoFisher Scientific), 2.5% FBS (Hyclone) and 1% Penicillin/Streptomycin in 96-well poly-D-Lysine coated plates to 80–90% confluence at 37°C, 5% CO2. Cells were washed and pre-incubated in assay buffer (HBSS with Ca^2+ and Mg^2+ containing 20 mM HEPES, 0.1% BSA (Sigma) and 20 nM sitagliptin (dipeptidyl peptidase 4 (DPP-4) inhibitor), for 30 min in 37°C. GPR120 agonists were added and cells were incubated for 2 hours in 37°C. DMSO (0.1%) was used as control. GLP-1 secretion was measured in the supernatants (GLP-1 active, Millipore) by fluorescence detection. Concentration of active GLP-1 was derived by interpolation from a GLP-1 standard curve.

lean mice = assay: Plasma total GLP-1 levels after oral administration in mice; type: in vivo, mouse; settings: 30 min after AZ13581837 or 60 min after Metabolex-36, oral, vs respective control group
Description: In separate experiments, mice were pretreated with the GLP-1 receptor antagonist exendin 9–39 (30 nmol/kg, Bachem; intraperitoneally) alone or in combination with the GPR120 agonists, 15 min prior to the IVGTT. Insulin and glucose were measured 0, 1, 5, 10, 20 and 40 min after intravenous (iv) glucose administration. In separate groups of mice total GLP-1 levels were measured 60 min after oral administration of Metabolex-36 or 30 min after AZ13581837 and in corresponding vehicle (0.5% HPMC, 0.1% Tween-80) dosed mice. Blood samples were collected in EDTA coated tubes, centrifuged at 10000xg for 4 min, and plasma was separated and stored frozen until analyzed.
Glucose was measured using a glucometer (AccuCheck, Bayer). Circulating hormones were measured using specific ELISA kits; insulin (ultra-sensitive mouse insulin, Crystal Chemistry), and total and active GLP-1 (Millipore).

mouse GPR120 [5] = molecular target: T2, mouse GPR120; assay: cAMP production in CHO cells overexpressing mouse GPR120; type: cell-based; settings: data not shown

| Compound | EC50 (human GPR120) | EC50 (mouse GPR120 [1]) | DMR response in control CHO cells (control CHO cells [2]) | cAMP levels in control CHO cells (control CHO cells [3]) | cAMP production in dispersed wt mouse islet cells [4] | GLP-1 secretion from STC-1 cells (STC-1 cells) | Total GLP-1 levels (lean mice) | Activation or inhibition of cAMP production in CHO cells overexpressing mouse GPR120 (mouse GPR120 [5]) |
| --- | --- | --- | --- | --- | --- | --- | --- | --- |
| 3-(3,5-difluoro-4-((3-methyl-1-phenyl-1H-pyrazol-5-yl)methoxy)phenyl)-2-methylpropanoic acid [Metabolex-36] | 6700 ± 1000 nM | 130 ± 20 nM | without activity | no increase | significantly reduced cAMP production | significantly increased GLP-1 secretion | significant increase | unable to detect |
| C#Cc1cc(Oc2cccnc2)cc(N2Cc3ccccc3S2(=O)=O)c1 [AZ13581837, 2-(3-ethynyl-5-(3-pyridyloxy)phenyl)-3H-1,2-benzothiazole 1,1-dioxide] | 60 ± 7 nM | 4.3 ± 0.6 nM | without activity | no increase | significantly reduced cAMP production | significantly increased GLP-1 secretion | significant increase | unable to detect |

— publication PMC5716539, “The acute glucose lowering effect of specific GPR120 activation in mice is mainly driven by glucagon-like peptide 1” (PLoS ONE, 2017)
